Assays:
[1] = tested on: C3H/HeN mice; assay: Telogen Conversion Assay; type: in vivo; details: for Results: number of days following initiation of treatment when hair growth appeared in 50% of the mice: topical once daily for 5 days
Excerpt: The Telogen Conversion Assay measures the potential of a compound (hereinafter referred to as the “test compound”) to convert mice in the resting stage of the hair growth cycle (“telogen”) to the active stage of the hair growth cycle (“anagen”). This assay takes advantage of the fact that the fur (i.e. hair) of 40-day-old C3H/HeN mice is in the telogen phase. This phase usually continues until about 75 days of age, at which point, anagen naturally occurs in these animals. In this assay, selected areas of 40-day-old mice (approximate) are shaved, contacted with a test agent, or a control, and the difference in the rate of hair growth is measured (i.e. induction of the anagen phase). The first sign of anagen is the darkening of skin color as melanocytes in the follicles start to synthesize melanin, in preparation for the production of pigmented hairs.
Female C3H/HeN mice, 7 weeks old (Charles River Laboratories, Raleigh, N.C.) were used for the study. Fur was clipped from the dorsal region of the mice prior to initiation of the study. Only mice with pink skin, a visual indication of the telogen phase, were selected for inclusion in the study.
Test compounds (from Table A) were dissolved in a vehicle consisting of propylene glycol (30%) and ethanol (70%). A test compound dissolved in vehicle, or a vehicle control (30/70 propylene glycol/ethanol, unless otherwise specified) was applied topically to the clipped dorsal region of the mice in each test group (7-10 mice) in a volume of 20 μl/cm^2. Treatments were applied once daily for 5 days.
The treatment area was observed and graded for signs of hair growth. The hair growth response was quantified by recording, for each animal, the day on which signs of hair growth first appeared over the treated area. The first sign of anagen was the darkening of skin color as melanocytes in the follicles started to synthesize melanin. The response time was measured as the number of days between initiation of treatment and when hair growth was present in 50% of the mice in a given group.
The results are reported as the number of days following initiation of treatment when hair growth appeared in 50% of the mice in a given group.

[2] = tested on: C3H/HeN mice; assay: Telogen Conversion Assay; type: in vivo; details: Experiment 8; for Results: number of days following initiation of treatment when hair growth appeared in 50% of the mice: topical once daily for 5 days, solvent polyethylene glycol 30 v/v %, ethanol 30 v/v %, transcutanol 40 v/v %, vehicle 28; for Induction of anagen (conclusion in words): transcutol, ethanol, polypropylene glycol vehicle
[3] = Experiment 15, 0.03 w/v %, propylene glycol 30%/ethanol 70%, vehicle >30
[4] = Experiment 15, 0.3 w/v %, propylene glycol 30%/ethanol 70%, vehicle >30
[5] = Experiment 15, 1.0 w/v %, propylene glycol 30%/ethanol 70%, vehicle >30
[6] = Experiment 15, terminated early

`CCOC(=O)CCCn1nnnc1-c1ccc2c(c1)[C@H](Oc1ccc(O)nn1)[C@@](C)(O)C(C)(C)O2` [Compound #2] was tested, and the “Results: number of days following initiation of treatment when hair growth appeared in 50% of the mice” value (shortened to “Results: number … in 50% of the mice”) ([1]; Experiment 3, 0.1 w/v %, propylene glycol 30%/ethanol 70%, terminated early) was >35 days, the “Results: number … in 50% of the mice” value ([1]; Experiment 3, 0.3 w/v %, propylene glycol 30%/ethanol 70%, terminated early) was >35 days and the “Results: number … in 50% of the mice” value ([1]; Experiment 3, 1.0 w/v %, propylene glycol 30%/ethanol 70%, terminated early) was >35 days. For the same molecule, the “Results: number … in 50% of the mice” value ([1]; Experiment 3, 2.5 w/v %, propylene glycol 30%/ethanol 70%, terminated early) was >35 days.

In the case of `Cn1nc(O[C@@H]2c3cc(S(=O)(=O)c4ccc(O)cc4)ccc3OC(C)(C)[C@@]2(C)O)ccc1=O` [Compound #6], the “Results: number … in 50% of the mice” value ([1]; Experiment 2, 0.3 w/v %, propylene glycol 30%/ethanol 70%, vehicle 25) is reported as 18 days, the “Results: number … in 50% of the mice” value ([1]; Experiment 2, 1.0 w/v %, propylene glycol 30%/ethanol 70%, vehicle 25) is reported as 30 days and the “Results: number … in 50% of the mice” value ([1]; Experiment 5, 0.03 w/v %, propylene glycol 30%/ethanol 70%, vehicle >35) is reported as >35 days. For the same molecule, the “Results: number … in 50% of the mice” value ([1]; Experiment 5, 0.1 w/v %, propylene glycol 30%/ethanol 70%, vehicle >35) was >35 days, the “Results: number … in 50% of the mice” value ([1]; Experiment 5, 0.3 w/v %, propylene glycol 30%/ethanol 70%, vehicle >35) was 23 days and the “Induction of anagen (conclusion in words)” value (shortened to “Induction of anagen”) ([1]; Experiment 5, terminated early) was “induced anagen at the highest concentration tested (0.3%)”. The “Results: number … in 50% of the mice” value ([1]; Experiment 6, 0.003 w/v %, propylene glycol 30%/ethanol 70%, vehicle >35) was >35 days, the “Results: number … in 50% of the mice” value ([1]; Experiment 6, 0.03 w/v %, propylene glycol 30%/ethanol 70%, vehicle >35) was >35 days and the “Results: number … in 50% of the mice” value ([1]; Experiment 6, 0.3 w/v %, propylene glycol 30%/ethanol 70%, vehicle >35) was >35 days. The “Induction of anagen” value ([1]; Experiment 6, terminated early, up to day 35) was “no effect was seen”, the “Results: number … in 50% of the mice” value ([1]; Experiment 7, 0.003 w/v %, propylene glycol 30%/ethanol 70%, vehicle 29) was 31 days and the “Results: number … in 50% of the mice” value ([1]; Experiment 7, 0.03 w/v %, propylene glycol 30%/ethanol 70%, vehicle 29) was >33 days. For the same molecule, the “Results: number … in 50% of the mice” value ([1]; Experiment 7, 0.3 w/v %, propylene glycol 30%/ethanol 70%, vehicle 29) was >33 days, the “Induction of anagen” value ([1]; Experiment 7, proceeded to completion) was “did not induce anagen prior to the control group” and the “Results: number … in 50% of the mice” value [1, 3] was >30 days. The “Results: number … in 50% of the mice” value [1, 4] was 14 days, the “Results: number … in 50% of the mice” value [1, 5] was >30 days and the “Induction of anagen” value [1, 6] was “induced anagen when applied at a concentration of 0.3 w/v %”.

`Cn1nc(O[C@@H]2c3cc(S(=O)(=O)c4ccccc4O)ccc3OC(C)(C)[C@@]2(C)O)ccc1=O` [Compound #7] was tested, and the “Results: number … in 50% of the mice” value ([2]; 0.3 w/v %) was 21 days, the “Results: number … in 50% of the mice” value ([2]; 1.0 w/v %) was 21 days and the “Induction of anagen” value [2] was “did exhibit activity”. The “Results: number … in 50% of the mice” value ([1]; Experiment 9, 0.03 w/v %, propylene glycol 30%/ethanol 70%, terminated early) was >33 days, the “Results: number … in 50% of the mice” value ([1]; Experiment 9, 0.3 w/v %, propylene glycol 30%/ethanol 70%, terminated early) was >33 days and the “Results: number … in 50% of the mice” value ([1]; Experiment 9, 1.0 w/v %, propylene glycol 30%/ethanol 70%, terminated early) was >33 days. For the same molecule, the “Results: number … in 50% of the mice” value ([1]; Experiment 10, 0.1 w/v %, propylene glycol 30%/ethanol 70%, terminated early) was >34 days, the “Results: number … in 50% of the mice” value ([1]; Experiment 10, 0.1 w/v %, solvent polyethylene glycol 30 v/v %, ethanol 30 v/v %, transcutanol 40 v/v %, terminated early) was >34 days and the “Results: number … in 50% of the mice” value ([1]; Experiment 10, 0.3 w/v %, propylene glycol 30%/ethanol 70%, terminated early) was >34 days. The “Results: number … in 50% of the mice” value ([1]; Experiment 10, 0.3 w/v %, solvent polyethylene glycol 30 v/v %, ethanol 30 v/v %, transcutanol 40 v/v %, terminated early) was >34 days, the “Results: number … in 50% of the mice” value [1, 3] was >30 days and the “Results: number … in 50% of the mice” value [1, 4] was >30 days. For the same molecule, the “Results: number … in 50% of the mice” value [1, 5] was >30 days and the “Induction of anagen” value [1, 6] was “showed no effect at the time of termination”.

For `CCOC(=O)CCCn1nnnc1-c1ccc2c(c1)[C@@H](Oc1ccnc(O)c1)[C@](C)(O)C(C)(C)O2` [Compound #5], the “Results: number … in 50% of the mice” value ([2]; 0.3 w/v %) was >35 days, the “Results: number … in 50% of the mice” value ([2]; 1.0 w/v %) was >35 days and the “Induction of anagen” value [2] was “inactive”.

In the case of `Cn1nc(OC2c3cc(S(=O)(=O)c4ccc(O)cc4)ccc3OC(C)(C)C2(C)O)c2ccccc2c1=O` (stereo not drawn) [Compound #4], the “Results: number … in 50% of the mice” value ([2]; 0.3 w/v %) is reported as >35 days, the “Results: number … in 50% of the mice” value ([2]; 1.0 w/v %) is reported as >35 days and the “Induction of anagen” value [2] is reported as “inactive”.

In the case of `CCOc1c(N[C@@H]2c3cc(S(=O)(=O)c4cccc(O)c4)ccc3OC(C)(C)[C@@]2(C)O)c(=O)c1=O` [Compound #3], the “Results: number … in 50% of the mice” value ([2]; 0.3 w/v %) is reported as >35 days, the “Results: number … in 50% of the mice” value ([2]; 1.0 w/v %) is reported as >35 days and the “Induction of anagen” value [2] is reported as “inactive”.

From patent US20050182065A1, “Method of stimulating hair growth” (priority 2004, published 2005)
